Data taken from ChEMBL document CHEMBL4706683 (J Med Chem, 2021).
Calls of active or inactive are those of the source. The calls are words filed in the database; no cut-off is given here.

Key:
[1] = biological target: Histone deacetylase 1 (Homo sapiens, UniProt Q13547); type: ADME, cell-based, Sf9
[2] = Inhibition of recombinant full length C-terminal His/FLAG-tagged Plasmodium falciparum HDAC1 expressed in baculovirus infected sf9 insect cells using fluorogenic […] as substrate preincubated for 1.5 hrs followed by substrate addition and measured after 30 mins by HDAC-GloI/II assay
[3] = system: Plasmodium falciparum; test: Antiplasmodial activity against artemisinin-resistant Plasmodium falciparum 6218 infected in human erythrocytes assessed as reduction in parasite growth incubated for 72 hrs by Giemsa staining based light microscopic method; type: functional, organism-based; settings: Plasmodium falciparum, 6218, Erythrocyte
[4] = Half life in Balb/c mouse at 2 mg/kg, iv administered as single dose measured upto 24 hrs by LC-MS/MS analysis; type: ADME, organism-based; settings: in vivo
[5] = system: Plasmodium falciparum; test: Antiplasmodial activity against synchronized ring stage Plasmodium falciparum Dd2 infected in human erythrocytes assessed as reduction in parasite growth incubated for 72 hrs by Giemsa staining based light microscopic method; type: functional, organism-based; settings: Dd2, Erythrocyte
[6] = system: Plasmodium falciparum; test: Antiplasmodial activity against artemisinin-resistant Plasmodium falciparum 6320 assessed as reduction in parasite survival at 700 nM incubated for 6 hrs followed by compound washout thrice and further cultured in compound free medium for 66 hrs by RSA; type: functional, organism-based
[7] = Toxicity in Balb/c mouse infected with blood stage Plasmodium yoelii assessed as recrudescence at 10 to 30 mg/kg, ip QD for 5 consecutive days and measured on day 20; type: organism-based; settings: in vivo, 120 h, dose 10-30 mg/kg, time 5 day
[8] = Clearance in mouse liver microsomes incubated upto 45 mins in presence of NADPH by LC-MS/MS analysis; type: ADME, Microsome; settings: read-out: CLH
[9] = system: Plasmodium falciparum; test: (§1) Antimalarial activity against synchronized schizont stage transgenic Plasmodium falciparum 3D7 with C-terminal glmS-fused HDAC2 knockdown assessed as parasite growth inhibition pretreated with glucosamine followed by compound treatment and incubated for 4 hrs followed by compound washout for thrice and subsequent culturing for 68 hrs by SYBR Green 1 staining based analysis; type: functional, organism-based
[10] = biological target: T1, Histone deacetylase 8 (Homo sapiens, UniProt Q9BY41); test: Inhibition of full length human C-terminal His-tagged HDAC8 expressed in baculovirus infected Sf9 cells using Ac-peptide as substrate preincubated for 15 mins followed by substrate addition and incubated for 120 mins followed by trypsin addition and further incubated for 240 mins
T1 sequence (Q9BY41 whole entry): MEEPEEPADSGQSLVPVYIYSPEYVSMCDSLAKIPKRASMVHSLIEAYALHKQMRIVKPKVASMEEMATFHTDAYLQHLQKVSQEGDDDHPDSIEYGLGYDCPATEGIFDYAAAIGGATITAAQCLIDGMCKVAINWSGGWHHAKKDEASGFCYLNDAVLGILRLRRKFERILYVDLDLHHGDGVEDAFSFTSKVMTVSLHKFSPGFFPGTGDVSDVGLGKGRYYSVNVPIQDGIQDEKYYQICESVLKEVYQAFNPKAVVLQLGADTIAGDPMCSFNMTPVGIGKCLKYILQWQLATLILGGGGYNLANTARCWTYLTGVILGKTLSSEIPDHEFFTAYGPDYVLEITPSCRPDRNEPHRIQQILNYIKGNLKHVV

[11] = Cmax in Balb/c mouse at 5 mg/kg, ip administered as single dose measured upto 24 hrs by LC-MS/MS analysis; type: ADME, organism-based; parameters: route intraperitoneal, dose 5 mg/kg, time <=24; settings: in vivo
[12] = Selectivity index, ratio of IC50 for cytotoxicity against human HEK293T cells assessed to IC50 for antiplasmodial activity against synchronized ring stage Plasmodium falciparum 3D7 infected in human erythrocytes; type: toxicity, cell-based; settings: read-out: Ratio IC50
[13] = Apparent volume of distribution during terminal phase in Balb/c mouse at 2 mg/kg, iv administered as single dose measured upto 24 hrs by LC-MS/MS analysis; type: ADME, organism-based; settings: in vivo
[14] = system: Plasmodium yoelii; test: Antiplasmodial activity against blood stage Plasmodium yoelii infected in Balb/c mouse assessed as reduction in parasitemia at 10 to 30 mg/kg, ip QD for 5 consecutive days and measured on day 20 by microscopic analysis; type: functional, organism-based; settings: dose 10-30 mg/kg, time 5.0 day
[15] = Toxicity in Balb/c mouse infected with sporozoites liver stage Plasmodium berghei assessed as animal death at 30 mg/kg, ip administered as single dose and measured upto 96 hrs; type: organism-based; settings: in vivo
[16] = system: Plasmodium falciparum; test: as §1, with “3xTY1-fused HDAC1” for “glmS-fused HDAC2”; type: functional, organism-based
[17] = AUC (0 to infinity) in Balb/c mouse at 5 mg/kg, ip administered as single dose measured upto 24 hrs by LC-MS/MS analysis; type: ADME, organism-based; parameters: route intraperitoneal, dose 5 mg/kg, time <=24; settings: in vivo
[18] = system: Plasmodium falciparum; test: Antiplasmodial activity against Plasmodium falciparum C2A infected in human erythrocytes assessed as reduction in parasite growth incubated for 72 hrs by Giemsa staining based light microscopic method; type: functional, organism-based; settings: Erythrocyte
[19] = system: Plasmodium falciparum; test: Antiplasmodial activity against Plasmodium falciparum CP286 infected in human erythrocytes assessed as reduction in parasite growth incubated for 72 hrs by Giemsa staining based light microscopic method; type: functional, organism-based; settings: CP286, Erythrocyte
[20] = system: Plasmodium falciparum; test: as §1, with “3xTY1-fused” for “glmS-fused”; type: functional, organism-based
[21] = Selectivity index, ratio of IC50 for cytotoxicity against human HepG2 cells assessed to IC50 for antiplasmodial activity against synchronized ring stage Plasmodium falciparum 3D7 infected in human erythrocytes; type: toxicity, cell-based; settings: read-out: Ratio IC50
[22] = Toxicity in Balb/c mouse infected with blood stage Plasmodium yoelii assessed as animal death at 10 to 30 mg/kg, ip QD for 5 consecutive days and measured on day 6; type: organism-based; settings: in vivo, 120 h, dose 10-30 mg/kg, time 5 day
[23] = AUC (0 to t) in Balb/c mouse at 5 mg/kg, ip administered as single dose measured upto 24 hrs by LC-MS/MS analysis; type: ADME, organism-based; parameters: route intraperitoneal, dose 5 mg/kg, time <=24; settings: in vivo
[24] = biological target: Histone deacetylase 2 (Homo sapiens, UniProt Q92769); test: Inhibition of human HDAC2 expressed in Sf9 cells using Ac-peptide as substrate preincubated for 15 mins followed by substrate and trypsin addition and further incubated for 60 mins
[25] = Apparent clearance during terminal phase in Balb/c mouse at 5 mg/kg, ip administered as single dose measured upto 24 hrs by LC-MS/MS analysis; type: ADME, organism-based; settings: in vivo, 5 mg/kg, 24 h
[26] = Half life in mouse liver microsomes incubated upto 45 mins in presence of NADPH by LC-MS/MS analysis; type: ADME, Microsome
[27] = system: HEK-293T; test: Cytotoxicity against human HEK293T cells assessed as reduction in cell viability incubated for 72 hrs by cell titer glo assay; type: cell-based
[28] = system: HepG2; test: Cytotoxicity against human HepG2 cells assessed as reduction in cell viability incubated for 72 hrs by cell titer glo assay; type: cell-based; settings: HepG2, 72 h
[29] = Apparent clearance during terminal phase in Balb/c mouse at 2 mg/kg, iv administered as single dose measured upto 24 hrs by LC-MS/MS analysis; type: ADME, organism-based; settings: in vivo
[30] = system: Plasmodium falciparum; test: Antiplasmodial activity against synchronized ring stage Plasmodium falciparum 3D7 infected in human erythrocytes assessed as reduction in parasite growth incubated for 72 hrs by Giemsa staining based light microscopic method; type: functional, organism-based; settings: 3D7, Erythrocyte

Sequence of Histone deacetylase 1 (Q13547 whole entry): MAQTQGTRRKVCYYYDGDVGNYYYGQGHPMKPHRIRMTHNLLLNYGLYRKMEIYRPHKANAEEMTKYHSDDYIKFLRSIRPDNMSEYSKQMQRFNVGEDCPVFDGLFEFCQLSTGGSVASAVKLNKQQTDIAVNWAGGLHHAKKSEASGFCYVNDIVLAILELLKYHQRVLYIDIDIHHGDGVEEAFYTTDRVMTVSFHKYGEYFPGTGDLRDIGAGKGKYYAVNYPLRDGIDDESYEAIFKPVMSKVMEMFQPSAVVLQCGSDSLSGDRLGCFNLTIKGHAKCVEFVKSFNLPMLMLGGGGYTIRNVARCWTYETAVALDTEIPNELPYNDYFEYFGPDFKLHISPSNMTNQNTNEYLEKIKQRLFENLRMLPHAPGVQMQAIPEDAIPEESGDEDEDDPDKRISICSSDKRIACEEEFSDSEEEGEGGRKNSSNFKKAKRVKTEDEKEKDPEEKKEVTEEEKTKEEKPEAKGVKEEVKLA
Sequence of Histone deacetylase 2 (Q92769 whole entry): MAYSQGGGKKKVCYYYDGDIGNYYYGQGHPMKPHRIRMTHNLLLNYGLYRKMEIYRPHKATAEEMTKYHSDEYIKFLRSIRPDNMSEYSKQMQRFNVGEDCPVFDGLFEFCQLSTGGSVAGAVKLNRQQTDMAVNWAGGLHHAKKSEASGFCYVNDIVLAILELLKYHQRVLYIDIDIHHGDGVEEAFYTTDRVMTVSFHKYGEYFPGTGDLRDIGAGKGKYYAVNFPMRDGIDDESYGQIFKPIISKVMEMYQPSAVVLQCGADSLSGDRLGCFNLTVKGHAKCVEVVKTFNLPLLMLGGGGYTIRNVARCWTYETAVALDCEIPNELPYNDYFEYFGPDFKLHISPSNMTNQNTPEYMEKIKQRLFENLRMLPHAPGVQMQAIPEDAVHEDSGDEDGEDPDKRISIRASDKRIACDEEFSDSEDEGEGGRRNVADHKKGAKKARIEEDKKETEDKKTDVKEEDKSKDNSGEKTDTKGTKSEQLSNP

`Cl.O=C(NO)c1cnc(N2CCC3(CCN(Cc4c[nH]c5ccccc45)C3)CC2)nc1` showed an IC50 [1] of 0.58 nM, an IC50 [2] of 0.343 nM and an IC50 [3] of 3 nM. For the same compound, the half-life [4] was 43.2 min, the IC50 [5] was 1.9 nM and the Activity [6] was “Active”. The Activity [7] was “Toxic”, the CLint scaled [8] was 121 mL/min/kg and the IC50 [9] was 69.5 nM. For the same compound, the IC50 [10] was 16 nM, the Cmax [11] was 108 ng/mL and the selectivity ratio [12] was 75. The Vz/F [13] was 10.3 L/kg, the Activity [14] was “inactive” and the Activity [15] was “Non-Toxic”. For the same compound, the IC50 [16] was 32.3 nM, the AUC(0-inf) [17] was 95.1 ng·h/mL and the IC50 [18] was 4.5 nM. For the same compound, the IC50 [19] was 4.26 nM, the IC50 [20] was 52.2 nM and the selectivity ratio [21] was 83. The Activity [22] was “Non-Toxic”, the AUC(0-t) at 24 h [23] was 81.9 ng·h/mL and the IC50 [24] was 1.8 nM. It also gave a CLz/F [25] of 567 mL/min/kg, a half-life [26] of 45 min and an IC50 [27] of 241 nM. The IC50 [28] was 264 nM, the CLz/F [29] was 280 mL/min/kg and the IC50 [30] was 3.19 nM.
